Values after ≈ are worked out from the molar mass of the structure shown. Where a SMILES comes first, the peptide text is derived from it. Bridges are numbered along the chain shown (N, C = ends). Roman numbers before positions name the chains, in order. Side-chain parts run from the residue outwards. The star is where a group is joined. LeuLys(Leu) = CC(C)C[C@H](N)C(=O)NCCCC[C@H](NC(=O)[C@@H](N)CC(C)C)C(=O)*; X2 = CC[C@H](C)[C@H](N)C(=O)NCCCC[C@H](NC(=O)[C@@H](N)[C@@H](C)CC)C(=O)*; X4 = C[C@H](N)C(=O)NCCCC[C@H](NC(=O)[C@H](C)N)C(=O)*
Key:
Bacillus subtilis = assay: Antibacterial activity against Bacillus subtilis BR151 after 18 to 24 hrs by broth microdilution assay; assay type: functional
Escherichia coli [1] = assay: Antibacterial activity against Escherichia coli DH5[alpha] after 18 to 24 hrs by broth microdilution assay; assay type: functional
Pseudomonas aeruginosa [2] = assay: Antibacterial activity against Pseudomonas aeruginosa PAO1 after 18 to 24 hrs by broth microdilution assay; assay type: functional
[3] = Hemolytic activity in human RBC after 4 hrs; assay type: ADME, cell-based; conditions: erythrocyte
Staphylococcus aureus [4] = assay: Antibacterial activity against methicillin-resistant Staphylococcus aureus 42080 by broth microdilution assay; assay type: functional
Staphylococcus aureus [5] = assay: Antibacterial activity against Staphylococcus aureus ATCC 29213 by broth microdilution assay; assay type: functional
Enterococcus faecalis [6] = assay: Antibacterial activity against Enterococcus faecalis ATCC 29212 by broth microdilution assay; assay type: functional
Enterococcus faecalis [7] = assay: Antibacterial activity against Enterococcus faecalis Van BE80-8 by broth microdilution assay; assay type: functional
Escherichia coli [8] = assay: Antibacterial activity against Escherichia coli ATCC 25922 by broth microdilution assay; assay type: functional
Pseudomonas aeruginosa [9] = assay: Antibacterial activity against Pseudomonas aeruginosa ATCC 27853 by broth microdilution assay; assay type: functional
Pseudomonas aeruginosa [10] = assay: Antibacterial activity against Pseudomonas aeruginosa PAO1 HS by broth microdilution assay; assay type: functional
Pseudomonas aeruginosa [11] = assay: Antibacterial activity against Pseudomonas aeruginosa 8S/H by broth microdilution assay; assay type: functional
Pseudomonas aeruginosa [12] = assay: Antibacterial activity against Pseudomonas aeruginosa K799/WT by broth microdilution assay; assay type: functional
Pseudomonas aeruginosa [13] = assay: Antibacterial activity against Pseudomonas aeruginosa K799/61 by broth microdilution assay; assay type: functional

Row | MIC (Bacillus subtilis) | MIC (Escherichia coli [1]) | MIC (Pseudomonas aeruginosa [2]) | SMILES | MHC [3] | MIC (Staphylococcus aureus [4]) | MIC (Staphylococcus aureus [5]) | MIC (Enterococcus faecalis [6]) | MIC (Enterococcus faecalis [7]) | MIC (Escherichia coli [8]) | MIC (Pseudomonas aeruginosa [9]) | MIC (Pseudomonas aeruginosa [10]) | MIC (Pseudomonas aeruginosa [11]) | MIC (Pseudomonas aeruginosa [12]) | MIC (Pseudomonas aeruginosa [13])
1 | 2 µg/mL (≈ 0.758 µM) | 15 µg/mL (≈ 5.69 µM) | ≥ 100 µg/mL | CC(C)C[C@H](NC(=O)[C@H](CCCCNC(=O)[C@@H](N)CC(C)C)NC(=O)[C@@H](N)CC(C)C)C(=O)NCCCC[C@H](NC(=O)[C@H](CC(C)C)NC(=O)[C@H](CCCCNC(=O)[C@@H](N)CC(C)C)NC(=O)[C@@H](N)CC(C)C)C(=O)N[C@@H](Cc1ccccc1)C(=O)NCCCC[C@H](NC(=O)[C@H](Cc1ccccc1)NC(=O)[C@H](CCCCNC(=O)[C@H](CC(C)C)NC(=O)[C@H](CCCCNC(=O)[C@@H](N)CC(C)C)NC(=O)[C@@H](N)CC(C)C)NC(=O)[C@H](CC(C)C)NC(=O)[C@H](CCCCNC(=O)[C@@H](N)CC(C)C)NC(=O)[C@@H](N)CC(C)C)C(=O)N[C@@H](C)C(N)=O (I: H-LK(Leu)LK([Leu-LeuLys(Leu)])FKA-NH2 / II: H-LK(Leu)LK([Leu-LeuLys(Leu)])F; amide I:6-II:C) | 31 µg/mL | – | – | – | – | – | – | – | – | – | –
2 | 4.4 µg/mL (≈ 1.61 µM) | 11 µg/mL (≈ 4.03 µM) | 60 µg/mL (≈ 22 µM) | CC(C)C[C@@H](N)C(=O)NCCCC[C@H](NC(=O)[C@H](N)CC(C)C)C(=O)N[C@H](Cc1ccccc1)C(=O)NCCCC[C@H](NC(=O)[C@@H](Cc1ccccc1)NC(=O)[C@H](CCCCNC(=O)[C@H](N)CC(C)C)NC(=O)[C@H](N)CC(C)C)C(=O)N1CCC[C@@H]1C(=O)NCCCC[C@H](NC(=O)[C@H]1CCCN1C(=O)[C@H](CCCCNC(=O)[C@@H](Cc1ccccc1)NC(=O)[C@H](CCCCNC(=O)[C@H](N)CC(C)C)NC(=O)[C@H](N)CC(C)C)NC(=O)[C@@H](Cc1ccccc1)NC(=O)[C@H](CCCCNC(=O)[C@H](N)CC(C)C)NC(=O)[C@H](N)CC(C)C)C(=O)N[C@H](CCCCN)C(N)=O | > 10000 µg/mL | – | – | – | – | – | – | – | – | – | –

The next lines start with the compound.

Row | SMILES | MIC (Bacillus subtilis) | MIC (Escherichia coli [1]) | MIC (Pseudomonas aeruginosa [2]) | MHC [3] | MIC (Staphylococcus aureus [4]) | MIC (Staphylococcus aureus [5]) | MIC (Enterococcus faecalis [6]) | MIC (Enterococcus faecalis [7]) | MIC (Escherichia coli [8]) | MIC (Pseudomonas aeruginosa [9]) | MIC (Pseudomonas aeruginosa [10]) | MIC (Pseudomonas aeruginosa [11]) | MIC (Pseudomonas aeruginosa [12]) | MIC (Pseudomonas aeruginosa [13])
3 | CC[C@H](C)[C@H](N)C(=O)NCCCC[C@H](NC(=O)[C@@H](N)[C@@H](C)CC)C(=O)N[C@@H](Cc1ccccc1)C(=O)NCCCC[C@H](NC(=O)[C@H](Cc1ccccc1)NC(=O)[C@H](CCCCNC(=O)[C@@H](N)[C@@H](C)CC)NC(=O)[C@@H](N)[C@@H](C)CC)C(=O)N1CCC[C@H]1C(=O)NCCCC[C@H](NC(=O)[C@@H]1CCCN1C(=O)[C@H](CCCCNC(=O)[C@H](Cc1ccccc1)NC(=O)[C@H](CCCCNC(=O)[C@@H](N)[C@@H](C)CC)NC(=O)[C@@H](N)[C@@H](C)CC)NC(=O)[C@H](Cc1ccccc1)NC(=O)[C@H](CCCCNC(=O)[C@@H](N)[C@@H](C)CC)NC(=O)[C@@H](N)[C@@H](C)CC)C(=O)N[C@@H](CCCCN)C(N)=O (I: H-IK(Ile)FK([Phe-X2])PKK-NH2 / II: H-IK(Ile)FK([Phe-X2])P; amide I:6-II:C) | 2.5 µg/mL (≈ 0.916 µM) | 18 µg/mL (≈ 6.59 µM) | 61 µg/mL (≈ 22.3 µM) | > 10000 µg/mL | > 32 µg/mL | > 32 µg/mL | > 32 µg/mL | > 32 µg/mL | > 32 µg/mL | > 32 µg/mL | > 32 µg/mL | > 32 µg/mL | > 32 µg/mL | > 32 µg/mL
4 | CC(C)C[C@H](NC(=O)[C@H](CCCCNC(=O)[C@@H](N)CC(C)C)NC(=O)[C@@H](N)CC(C)C)C(=O)NCCCC[C@H](NC(=O)[C@H](CC(C)C)NC(=O)[C@H](CCCCNC(=O)[C@@H](N)CC(C)C)NC(=O)[C@@H](N)CC(C)C)C(=O)N[C@@H](C)C(=O)NCCCC[C@H](NC(=O)[C@H](C)NC(=O)[C@H](CCCCNC(=O)[C@H](CC(C)C)NC(=O)[C@H](CCCCNC(=O)[C@@H](N)CC(C)C)NC(=O)[C@@H](N)CC(C)C)NC(=O)[C@H](CC(C)C)NC(=O)[C@H](CCCCNC(=O)[C@@H](N)CC(C)C)NC(=O)[C@@H](N)CC(C)C)C(=O)N[C@@H](CCCCN)C(N)=O (I: H-LK(Leu)LK([Leu-LeuLys(Leu)])AKK-NH2 / II: H-LK(Leu)LK([Leu-LeuLys(Leu)])A; amide I:6-II:C) | 4.5 µg/mL (≈ 1.77 µM) | > 100 µg/mL | 67 µg/mL (≈ 26.4 µM) | > 2000 µg/mL | – | – | – | – | – | – | – | – | – | –
5 | CC(C)C[C@H](NC(=O)[C@H](CCCCNC(=O)[C@H](C)N)NC(=O)[C@H](C)N)C(=O)NCCCC[C@H](NC(=O)[C@H](CC(C)C)NC(=O)[C@H](CCCCNC(=O)[C@H](C)N)NC(=O)[C@H](C)N)C(=O)N[C@@H](Cc1ccccc1)C(=O)NCCCC[C@H](NC(=O)[C@H](Cc1ccccc1)NC(=O)[C@H](CCCCNC(=O)[C@H](CC(C)C)NC(=O)[C@H](CCCCNC(=O)[C@H](C)N)NC(=O)[C@H](C)N)NC(=O)[C@H](CC(C)C)NC(=O)[C@H](CCCCNC(=O)[C@H](C)N)NC(=O)[C@H](C)N)C(=O)N[C@@H](CCCCN)C(N)=O (I: H-AK(Ala)LK([Leu-X4])FKK-NH2 / II: H-AK(Ala)LK([Leu-X4])F; amide I:6-II:C) | > 100 µg/mL | > 100 µg/mL | 67 µg/mL (≈ 28.4 µM) | 1000 µg/mL | – | – | – | – | – | – | – | – | – | –

Source: ChEMBL document CHEMBL3217499, “Membrane disrupting antimicrobial peptide dendrimers with multiple amino termini” (Medchemcomm, 2012)
